The values that follow come from PubChem BioAssay (NCI).

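All cell lines were grown in 96-well plates and treated with compound for 48 hours. Here, GI50 denotes the concentration required for 50% inhibition of growth. TGI denotes the concentration required for complete inhibition of growth.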

Test systems include M14 melanoma; SNB-75 CNS; 786-0 renal; RXF 393 renal; HOP-62 NSCLC; SK-MEL-2 melanoma; SF-539 CNS; SK-MEL-5 melanoma; UO-31 renal; OVCAR-3 ovarian.
Common to all, as to assay: NCI-60 cell line screen, 48 h

As for `N#Cc1c(NC(=O)NCc2ccccc2)sc2c1CCCCC2`, the GI50 in the assay on M14 melanoma is 0.415 µM; in the assay with SNB-75 CNS, 0.261 µM; with 786-0 renal, 0.761 µM; with RXF 393 renal, 0.352 µM; in the assay with HOP-62 NSCLC it was 0.706 µM; in the assay on SK-MEL-2 melanoma, 2.27 µM. Besides, the GI50 in the assay on SF-539 CNS is 0.328 µM; in the assay with SK-MEL-5 melanoma, 0.478 µM; in the assay with UO-31 renal, 0.626 µM; in the assay on OVCAR-3 ovarian, 0.346 µM. The TGI with M14 melanoma was more than 100 µM; in the assay on SNB-75 CNS, 4.91 µM; in the assay with 786-0 renal, more than 100 µM; in the assay with RXF 393 renal, 2.38 µM; in the assay on HOP-62 NSCLC, more than 64.2 µM; in the assay on SK-MEL-2 melanoma it was more than 100 µM. For the same molecule, the TGI in the assay with SF-539 CNS is 1.87 µM; with SK-MEL-5 melanoma, 3.6 µM; with UO-31 renal it was more than 100 µM; in the assay on OVCAR-3 ovarian it was 1.61 µM.

Take `O=C(Nc1ccc2ncccc2c1)Nc1ccc2ncccc2c1`: the TGI in the assay with M14 melanoma, with SNB-75 CNS, in the assay on 786-0 renal, in the assay with RXF 393 renal, in the assay with HOP-62 NSCLC and in the assay on SK-MEL-2 melanoma was more than 100 µM in each case. Also, the TGI in the assay with SF-539 CNS, in the assay with SK-MEL-5 melanoma, in the assay with UO-31 renal and in the assay on OVCAR-3 ovarian was more than 100 µM throughout.

With `COc1ccc(OC)c2c1[nH]c(=O)c1c3ccccc3cn21`, the GI50 in the assay with M14 melanoma was 1.79 µM; in the assay with SNB-75 CNS it was 1.44 µM; in the assay on 786-0 renal, 1.88 µM; in the assay with RXF 393 renal it was 1.5 µM; in the assay on HOP-62 NSCLC, 1.52 µM; with SK-MEL-2 melanoma, 2 µM. For the same molecule, the GI50 in the assay on SF-539 CNS is 1.69 µM; in the assay on SK-MEL-5 melanoma, 1.53 µM; in the assay on UO-31 renal it was 1.11 µM; with OVCAR-3 ovarian, 1.64 µM. Besides, the TGI with M14 melanoma stood at 3.37 µM; with SNB-75 CNS, 2.83 µM; with 786-0 renal, 3.34 µM; with RXF 393 renal, 3.01 µM; with HOP-62 NSCLC it was 3.18 µM; in the assay with SK-MEL-2 melanoma, 4.01 µM. For the same molecule, the TGI in the assay with SF-539 CNS came to 3.08 µM; in the assay with SK-MEL-5 melanoma it was 2.93 µM; in the assay on UO-31 renal, 2.38 µM; with OVCAR-3 ovarian it was 3.31 µM.

As for `C#CCOc1cccc(-c2ncc3cc(NC(=O)CCl)ccc3n2)c1`, the GI50 was 1.81 µM in the assay on M14 melanoma; 2.22 µM with SNB-75 CNS; 2.01 µM with 786-0 renal; 1.64 µM in the assay with RXF 393 renal; 2.02 µM in the assay with HOP-62 NSCLC; 1.58 µM in the assay on SK-MEL-2 melanoma. Further, the GI50 was 1.51 µM with SF-539 CNS, 1.33 µM in the assay with SK-MEL-5 melanoma, 1.52 µM in the assay on UO-31 renal and 1.93 µM in the assay with OVCAR-3 ovarian. Further, the TGI with M14 melanoma stood at 4.54 µM; with SNB-75 CNS it was 15.4 µM; with 786-0 renal, 3.59 µM; in the assay on RXF 393 renal, 3.09 µM; with HOP-62 NSCLC, 3.81 µM; with SK-MEL-2 melanoma, 3.63 µM. The TGI with SF-539 CNS was found to be 2.92 µM; with SK-MEL-5 melanoma it was 2.62 µM; with UO-31 renal it was 2.91 µM; in the assay with OVCAR-3 ovarian, 3.79 µM.

With `COc1cccc(C2CC(C)(O)Oc3cc4c(cc32)OCO4)c1O` (stereo not drawn), the TGI was more than 65.8 µM with M14 melanoma; 60.2 µM in the assay with SNB-75 CNS; more than 100 µM with 786-0 renal; more than 79.8 µM in the assay with RXF 393 renal; 79.7 µM in the assay with HOP-62 NSCLC; more than 80.4 µM with SK-MEL-2 melanoma. In addition, the TGI with SF-539 CNS is 38.5 µM; with SK-MEL-5 melanoma it was more than 61.3 µM; in the assay with UO-31 renal it was 97.9 µM; with OVCAR-3 ovarian, 42.2 µM.

Turning to `CCN(CC)CCCN1CCc2c([nH]c3ccccc23)C1c1cccnc1` (stereo not drawn), the TGI in the assay on M14 melanoma, with SNB-75 CNS, in the assay on 786-0 renal, with RXF 393 renal, with HOP-62 NSCLC and with SK-MEL-2 melanoma was more than 100 µM each time. The TGI with SF-539 CNS, in the assay with SK-MEL-5 melanoma, in the assay with UO-31 renal and with OVCAR-3 ovarian was more than 100 µM each time.

`CC1(C)COC(C2(C)C(=O)C=C(c3ccccc3)c3ccccc32)=N1` (stereo not drawn): the TGI in the assay with M14 melanoma, in the assay on SNB-75 CNS, with 786-0 renal, in the assay with RXF 393 renal, in the assay with HOP-62 NSCLC and with SK-MEL-2 melanoma was more than 100 µM in each case. Also, the TGI in the assay with SF-539 CNS is more than 100 µM; with SK-MEL-5 melanoma, more than 100 µM; in the assay with UO-31 renal it was 98.6 µM; in the assay on OVCAR-3 ovarian, more than 100 µM.

As for `N#Cc1c(N)nc(N2CCOCC2)c(C#N)c1-c1ccncc1`, the GI50 in the assay with M14 melanoma was more than 100 µM; in the assay on SNB-75 CNS it was 41.4 µM; in the assay with 786-0 renal it was 95.7 µM; in the assay with RXF 393 renal, more than 100 µM; with HOP-62 NSCLC, 29.6 µM; in the assay with SK-MEL-2 melanoma, more than 100 µM. In addition, the GI50 in the assay on SF-539 CNS is more than 100 µM; with SK-MEL-5 melanoma, more than 100 µM; in the assay on UO-31 renal, 31.3 µM; with OVCAR-3 ovarian it was 36.4 µM. Moreover, the TGI in the assay on M14 melanoma, with SNB-75 CNS, with 786-0 renal, with RXF 393 renal, with HOP-62 NSCLC and with SK-MEL-2 melanoma was more than 100 µM in each case. The TGI in the assay on SF-539 CNS, in the assay on SK-MEL-5 melanoma, with UO-31 renal and with OVCAR-3 ovarian was more than 100 µM each time.

Take `NC(=O)/C=C/C(=O)c1c(Cl)cccc1Cl`: the GI50 in the assay with M14 melanoma is 1.45 µM; with SNB-75 CNS, 1.61 µM; in the assay on 786-0 renal, 2.14 µM; in the assay on RXF 393 renal, 0.601 µM; in the assay with HOP-62 NSCLC it was 2.63 µM; with SK-MEL-2 melanoma it was 1.83 µM. In addition, the GI50 is 1.41 µM in the assay with SF-539 CNS, 1.4 µM in the assay on SK-MEL-5 melanoma, 0.429 µM in the assay on UO-31 renal and 0.533 µM in the assay with OVCAR-3 ovarian. Besides, the TGI in the assay with M14 melanoma was 2.76 µM; with SNB-75 CNS it was 2.96 µM; with RXF 393 renal, 1.4 µM; in the assay on SK-MEL-2 melanoma, 4.01 µM; with SF-539 CNS it was 2.71 µM; with SK-MEL-5 melanoma, 2.7 µM. The TGI in the assay with UO-31 renal came out at 0.859 µM; in the assay on OVCAR-3 ovarian it was 1.72 µM.
